Measurements as given in patent US10611740B2, “Aryl dihydro-2H-benzo[b][1,4]oxazine sulfonamide and related compounds for use as agonists of RORγ and the treatment of disease” (Lycera Corporation, priority 2015, dated 2020).

How the values were obtained:
[1] = biological target: T1, Gal4-RORγ-LBD (Homo sapiens, UniProt P51449); assay: Gal4-RORγ Luciferase Reporter Assay in HEK-293T Cells; type: cell-based; conditions: HEK-293 cells
T1 construct: expressed in transfected cells; host or cells: HEK-293 cells (pcDNA3.1neo plasmid)
T1 sequence (P51449 269-508 limits assumed): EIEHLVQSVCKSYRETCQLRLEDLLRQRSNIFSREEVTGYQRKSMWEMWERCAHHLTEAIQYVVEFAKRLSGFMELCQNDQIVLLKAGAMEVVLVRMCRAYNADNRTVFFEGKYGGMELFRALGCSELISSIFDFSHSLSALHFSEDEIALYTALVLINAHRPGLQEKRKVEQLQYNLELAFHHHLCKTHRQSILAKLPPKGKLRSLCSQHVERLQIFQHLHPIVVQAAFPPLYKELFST
Outline: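 In transfected HEK-293 cells (Gal4-RORγ-LBD, Gal4-luciferase), test agents with 2 μM ursolic acid were incubated overnight at 37 °C before luminescent detection. Values are relative to the ursolic-acid-free, compound-free signal (100).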

[2] = biological target: T2, RORγ-LBD (Homo sapiens, UniProt P51449); assay: RORγ-Ligand Binding Domain (LBD) TR-FRET Assay; type: biochemical;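 for TR-FRET Assay Max Response: 665/615 nm ratio relative to signal without ursolic acid or compound set at 100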
T2 construct: made in house; host or cells: SF9 cells (baculovirus)
T2 sequence (P51449 269-508 limits assumed): T1 sequence (P51449 269-508 limits assumed)
Outline: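 SF9 lysate containing His-RORγ-LBD, ~3 nM final; coactivator peptide biotin-SRC1 LXXLL, 200 nM final; ursolic acid 2 μM final; DMSO 1% final; Tris pH 7.0 buffer with KCl, EDTA, DTT, BSA. TR-FRET format.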

[3] = luciferase reporter, with 2 μM ursolic acid

| EC50 [1, 3] [nM] | EC50 [2] [nM] | EC50 ([1]; 2 μM ursolic acid) [nM] | Structure (SMILES) | Gal4-RORγ Assay Max Response [1, 3] | TR-FRET Assay Max Response [2] | Gal4-RORγ Assay Max Response ([1]; 2 μM ursolic acid) |
| --- | --- | --- | --- | --- | --- | --- |
| < 500 | < 500 |  | CC(C)(C[C@H]1CN(S(=O)(=O)c2cccc(C(F)(F)F)c2)c2cc(-c3cccc(C(F)(F)F)c3)ccc2O1)C(=O)O [Compound 32O, (S)-2,2-dimethyl-3-(6-(3-(trifluoromethyl)phenyl)-4-((3-(trifluoromethyl)phenyl)sulfonyl)-3,4-dihydro-2H-benzo[b][1,4]oxazin-2-yl)propanoic acid] | * (The symbol “*” indicates a value in the range of 25 to 90) | **** (The symbol “****” indicates a value greater than 200) |  |
| < 500 | < 500 |  | O=C(O)CCC[C@H]1CN(S(=O)(=O)c2cccc(C(F)(F)F)c2)c2cc(-c3cccc(C(F)(F)F)n3)ccc2O1 [Compound 21C, (S)-4-(4-((3-(trifluoromethyl)-phenyl)sulfonyl)-6-(6-(trifluoromethyl)pyridin-2-yl)-3,4-dihydro-2H-benzo[b][1,4]oxazin-2-yl)butanoic acid] | *** (The symbol “***” indicates a value in the range of greater than 150 to 200) | **** (The symbol “****” indicates a value greater than 200) |  |
| < 500 | < 500 |  | CC1(C(=O)NC[C@H]2CN(S(=O)(=O)c3cccc(C(F)(F)F)c3)c3cc(-c4cc(F)ccc4F)ccc3O2)CC1 [Compound 30AV, (S)-N-((6-(2,5-difluorophenyl)-4-((3-(trifluoromethyl)phenyl)-sulfonyl)-3,4-dihydro-2H-benzo[b][1,4]oxazin-2-yl)methyl)-1-methylcyclo-propane-1-carboxamide] | * (The symbol “*” indicates a value in the range of 25 to 90) | *** (The symbol “***” indicates a value in the range of greater than 150 to 200) |  |
| 500 to 5000 | < 500 |  | O=C(NC[C@H]1CN(S(=O)(=O)c2cccc(C(F)(F)F)c2)c2cc(-c3cc(F)ccc3F)ccc2O1)c1cn[nH]c1 [Compound 30AC, (S)-N-((6-(2,5-difluorophenyl)-4-((3-(trifluoromethyl)phenyl)-sulfonyl)-3,4-dihydro-2H-benzo[b][1,4]oxazin-2-yl)methyl)-1H-pyrazole-4-carboxamide] | * (The symbol “*” indicates a value in the range of 25 to 90) | **** (The symbol “****” indicates a value greater than 200) |  |
| < 500 | < 500 |  | COc1c(F)cc(F)cc1-c1ccc2c(c1)N(S(=O)(=O)c1cccc(C(F)(F)F)c1)C[C@H](CCC(=O)O)O2 [Compound 2BC, (S)-3-(6-(3,5-difluoro-2-methoxyphenyl)-4-((3-(trifluoromethyl)phenyl)-sulfonyl)-3,4-dihydro-2H-benzo[b][1,4]oxazin-2-yl)propanoic acid] | *** (The symbol “***” indicates a value in the range of greater than 150 to 200) | **** (The symbol “****” indicates a value greater than 200) |  |
| < 500 | < 500 |  | O=C(O)CC[C@H]1CN(S(=O)(=O)c2cccc(OC(F)F)c2)c2cc(-c3cc(F)cc(F)c3Cl)ccc2O1 [Compound 6L, (S)-3-(6-(2-chloro-3,5-difluoro-phenyl)-4-((3-(difluoromethoxy)-phenyl)sulfonyl)-3,4-dihydro-2H-benzo[b][1,4]oxazin-2-yl)propanoic acid] | ** (The symbol “**” indicates a value in the range of greater than 90 to 150) | *** (The symbol “***” indicates a value in the range of greater than 150 to 200) |  |
| < 500 | < 500 |  | CN(C)c1cccc(-c2ccc3c(c2)N(S(=O)(=O)c2cccc(C(F)(F)F)c2)C[C@H](CNC(=O)C2CC2)O3)n1 [Compound 30BC, (S)-N-((6-(6-(dimethylamino)-pyridin-2-yl)-4-((3-(trifluoro-methyl)phenyl)sulfonyl)-3,4-dihydro-2H-benzo[b][1,4]-oxazin-2-yl)methyl)cyclo-propanecarboxamide] | ** (The symbol “**” indicates a value in the range of greater than 90 to 150) | *** (The symbol “***” indicates a value in the range of greater than 150 to 200) |  |
| 500 to 5000 | < 500 |  | NCC[C@H]1CN(S(=O)(=O)c2cccc(C(F)(F)F)c2)c2cc(-c3cc(F)ccc3F)ccc2O1 [Compound 27, (S)-2-(6-(2,5-difluorophenyl)-4-((3-(trifluoromethyl)phenyl)sulfonyl)-3,4-dihydro-2H-benzo[b][1,4]oxazin-2-yl)ethan-1-amine] | * (The symbol “*” indicates a value in the range of 25 to 90) | **** (The symbol “****” indicates a value greater than 200) |  |
| 500 to 5000 | < 500 |  | O=C(O)CNC(=O)NCC[C@H]1CN(S(=O)(=O)c2cccc(C(F)(F)F)c2)c2cc(-c3cc(F)ccc3F)ccc2O1 [Compound 23X, (S)-((2-(6-(2,5-difluorophenyl)-4-((3-(trifluoromethyl)phenyl)-sulfonyl)-3,4-dihydro-2H-benzo[b][1,4]oxazin-2-yl)ethyl)carbamoyl)glycine] | ** (The symbol “**” indicates a value in the range of greater than 90 to 150) | **** (The symbol “****” indicates a value greater than 200) |  |
| 500 to 5000 | 500 to 5000 |  | CS(=O)(=O)c1ccccc1-c1ccc2c(c1)N(S(=O)(=O)c1cccc(C(F)(F)F)c1)C[C@H](CCC(=O)O)O2 [Compound 2BI, (S)-3-(6-(2-(methylsulfonyl)-phenyl)-4-((3-(trifluoromethyl)-phenyl)sulfonyl)-3,4-dihydro-2H-benzo[b][1,4]oxazin-2-yl)propanoic acid] | ** (The symbol “**” indicates a value in the range of greater than 90 to 150) | *** (The symbol “***” indicates a value in the range of greater than 150 to 200) |  |
| > 10000 | < 500 |  | O=C(O)CC[C@H]1CN(S(=O)(=O)c2cccc(C(F)(F)F)c2)c2cc(-c3ccc(F)c(C(F)(F)F)c3)ccc2O1 [Compound 2AF, (S)-3-(6-(4-fluoro-3-(trifluoromethyl)phenyl)-4-((3-(trifluoromethyl)phenyl)-sulfonyl)-3,4-dihydro-2H-benzo[b][1,4]oxazin-2-yl)propanoic acid] |  | **** (The symbol “****” indicates a value greater than 200) |  |
| < 500 | < 500 |  | CN(C)c1cncc(-c2ccc3c(c2)N(S(=O)(=O)c2cccc(C(F)(F)F)c2)C[C@H](CCC(=O)O)O3)n1 [Compound 4AL, (S)-3-(6-(6-(dimethylamino)-pyrazin-2-yl)-4-((3-(trifluoromethyl)phenyl)-sulfonyl)-3,4-dihydro-2H-benzo[b][1,4]oxazin-2-yl)propanoic acid] | ** (The symbol “**” indicates a value in the range of greater than 90 to 150) | **** (The symbol “****” indicates a value greater than 200) |  |
| 500 to 5000 | < 500 |  | O=C(CC[C@H]1CN(S(=O)(=O)c2cccc(C(F)(F)F)c2)c2cc(-c3ccc(F)cc3F)ccc2O1)NS(=O)(=O)c1ccccc1 [Compound 43A, (S)-3-(6-(2,4-difluorophenyl)-4-((3-(trifluoromethyl)phenyl)-sulfonyl)-3,4-dihydro-2H-benzo[b][1,4]oxazin-2-yl)-N-(phenylsulfonyl)propanamide] | *** (The symbol “***” indicates a value in the range of greater than 150 to 200) | **** (The symbol “****” indicates a value greater than 200) |  |
|  | < 500 | < 500 | O=C(O)C1(C[C@H]2CN(S(=O)(=O)c3cccc(C4CC4)c3)c3cc(-c4cc(F)cc(OC(F)F)c4)ccc3O2)COC1 [Compound 51F, (S)-3-((4-((3-cyclopropyl-phenyl)sulfonyl)-6-(3-(difluoro-methoxy)-5-fluorophenyl)-3,4-dihydro-2H-benzo[b][1,4]oxazin-2-yl)methyl)oxetane-3-carboxylic acid] |  | *** (The symbol “***” indicates a value in the range of greater than 150 to 200) | ** (The symbol “**” indicates a value in the range of greater than 90 to 150) |
| < 500 | < 500 |  | O=C(O)CCNC(=O)CC[C@H]1CN(S(=O)(=O)c2cccc(C(F)(F)F)c2)c2cc(-c3cccc(Cl)c3)ccc2O1 [Compound 23D, (S)-3-(3-(6-(3-chlorophenyl)-4-((3-(trifluoromethyl)phenyl)-sulfonyl)-3,4-dihydro-2H-benzo[b][1,4]oxazin-2-yl)propanamido)propanoic acid] | ** (The symbol “**” indicates a value in the range of greater than 90 to 150) | *** (The symbol “***” indicates a value in the range of greater than 150 to 200) |  |
